# Measurements: patent US20180243273A1, “Composition for Intravesical Administration for Treating Bladder Pain” (priority 2017, published 2018)
# Key:
# Type in all cases: physicochemical
# [1] = Preliminary stability study of API intravesical solution; conditions: vitamin E TPGS 2%, API 150 μg/mL, no Asc., treated with nitrogen
# Description: Two dose strengths were specified: 40 μg/mL and 150 μg/mL API. These concentrations were defined in order to stay below 80% of the saturated solubility values obtained during previous experiments. To enable dissolution of the API, 0.5 wt.-% and 2 wt.-% vitamin E TPGS were used for 40 μg/mL and 150 μg/mL API, respectively (24 h stirring). The compositions were treated with nitrogen and stored at 5° C., 25° C. and 40° C.
# [2] = Solubility and stability of API in dependence of surfactant concentration; conditions: phosphate buffer and 0.50% vitamin E TPGS, compared with other buffer/surfactant combinations at 0.25% and 0.5%
# Description: In order to prevent too high concentrations of surfactants, which can cause irritant or toxic effects after local administration in the bladder, lower concentrations were evaluated. New batches of API in citrate and phosphate buffer were manufactured. SLS and vitamin E TPGS were chosen for citrate buffer and Labrasol® and vitamin E TPGS for phosphate buffer in a concentration of 0.5% and 0.25%, each. The compositions were stirred overnight prior to filtration and analysis.
# [3] = Solubility and impurities of API with solubility enhancing excipients in citrate or phosphate buffer pH 4.5; conditions: for solubility: thermodynamic from solid
# Description: The solubility of the API was assessed in different buffers together with different excipients. Batches containing different amounts of non-micronized API (i.e. 1 mg, 4 mg, 10 mg or 15 mg) in 100 g buffer were manufactured in order to have saturated solutions. Two different buffers were chosen (citrate buffer and phosphate buffer). […] In order to improve the poor solubility of the API, different solubility enhancing excipients were incorporated in the buffer systems in a concentration range of 0.1-2 wt.-%:
# First, buffers were prepared according to Ph. Eur. After pH adjustment, the corresponding excipient was dissolved in the buffer. 1 mg of the API was added to the excipient containing buffer (i.e. 100 g) and stirred. If the API was dissolved completely, another 9 mg were added to a final amount of 10 mg API in […] buffer/excipient mixture. The resulting compositions were stirred overnight prior to filtration through a 0.45 μm filter and analysis and contained 1 mg or 10 mg API, respectively. The following compositions were prepared and the following solubility values were achieved: […]
# [4] = Stability after autoclaving; conditions: 121° C. and 2 bar for 20 min
# Description: The stability of the pharmaceutical composition was assessed by means of autoclaving experiments, where the compositions were treated at 121° C. and 2 bar for 20 min.
# Autoclaving experiments were performed with the aim to evaluate the stability of API in defined buffer systems and excipients. Clear glass covered by aluminium foil was chosen as primary packaging as it provided sufficient light protection for the material and was expected to provide a smaller risk of interaction than amber glass. The batches were autoclaved at 121° C. and 2 bar for 20 min, following analysis of impurity profiles.
compound,measurement,setting,value
"CN(C)[C@]1(c2cccc(F)c2)CC[C@]2(CC1)c1[nH]c3ccccc3c1CCN2C(=O)/C=C/c1ccccc1 [API, cis-(E)-4-(3-fluorophenyl)-2′,3′,4′,9′-tetrahydro-N,N-dimethyl-2′-(1-oxo-3-phenyl-2-propenyl)-spiro[cyclohexane-1,1′[1H]-pyrido[3,4-b]indol]-4-amine]",Assay,"[1]; 40° C., 1 m",61.37 % L.S.
same,Impurities,"[1]; 40° C., 1 m",1.84 % (a/a)
same,Assay,"[1]; 40° C., 2 w",61.71 % L.S.
same,Impurities,"[1]; 40° C., 2 w",1.16 % (a/a)
same,Assay,"[1]; 40° C., 3 m",59.41 % L.S.
same,Impurities,"[1]; 40° C., 3 m",4.09 % (a/a)
same,Assay,[1]; t = 0,61.73 % L.S.
same,Impurities,[1]; t = 0,0.44 % (a/a)
same,assay and impurities,[2],highest assay and lowest impurities values
same,Sum of impurities,"[3]; citrate buffer pH 4.5, 1 wt.-% Cremophor ® RH 40, 1 mg API in 100 g buffer",0.92 % (a/a)
same,Sum of impurities,"[3]; citrate buffer pH 4.5, 1 wt.-% Gelucire ® 44/14, 10 mg API in 100 g buffer",25.91 % (a/a)
same,Sum of impurities,"[3]; citrate buffer pH 4.5, 1 wt.-% Labrasol ®, 10 mg API in 100 g buffer",19.81 % (a/a)
same,Sum of impurities,"[3]; citrate buffer pH 4.5, 1 wt.-% PEG 400, 10 mg API in 100 g buffer",0 % (a/a)
same,Sum of impurities,"[3]; citrate buffer pH 4.5, 1 wt.-% Propylene glycol, 10 mg API in 100 g buffer",0 % (a/a)
same,Sum of impurities,"[3]; citrate buffer pH 4.5, 1 wt.-% SLS, 1 mg API in 100 g buffer",5.52 % (a/a)
same,Sum of impurities,"[3]; citrate buffer pH 4.5, 1 wt.-% SLS, 10 mg API in 100 g buffer",3.47 % (a/a)
same,Sum of impurities,"[3]; citrate buffer pH 4.5, 1 wt.-% Solutol ® HS 15, 1 mg API in 100 g buffer",0.53 % (a/a)
same,Sum of impurities,"[3]; citrate buffer pH 4.5, 1 wt.-% Tween ® 80, 1 mg API in 100 g buffer",1.1 % (a/a)
same,Sum of impurities,"[3]; citrate buffer pH 4.5, 1 wt.-% vitamin E TPGS, 10 mg API in 100 g buffer",5.71 % (a/a)
same,solubility,"[3]; citrate buffer, pH 4.5, aqueous with cosolvent or surfactant or cyclodextrin, citrate buffer pH 4.5, 1 wt.-% Cremophor ® RH 40, 1 mg API in 100 g buffer",7.18 µg/mL
same,solubility,"[3]; citrate buffer, pH 4.5, aqueous with cosolvent or surfactant or cyclodextrin, citrate buffer pH 4.5, 1 wt.-% Gelucire ® 44/14, 10 mg API in 100 g buffer",34.9 µg/mL
same,solubility,"[3]; citrate buffer, pH 4.5, aqueous with cosolvent or surfactant or cyclodextrin, citrate buffer pH 4.5, 1 wt.-% Labrasol ®, 10 mg API in 100 g buffer",12.1 µg/mL
same,solubility,"[3]; citrate buffer, pH 4.5, aqueous with cosolvent or surfactant or cyclodextrin, citrate buffer pH 4.5, 1 wt.-% SLS, 1 mg API in 100 g buffer",79.5 µg/mL
same,solubility,"[3]; citrate buffer, pH 4.5, aqueous with cosolvent or surfactant or cyclodextrin, citrate buffer pH 4.5, 1 wt.-% SLS, 10 mg API in 100 g buffer",8.19 µg/mL
same,solubility,"[3]; citrate buffer, pH 4.5, aqueous with cosolvent or surfactant or cyclodextrin, citrate buffer pH 4.5, 1 wt.-% Solutol ® HS 15, 1 mg API in 100 g buffer",7.95 µg/mL
same,solubility,"[3]; citrate buffer, pH 4.5, aqueous with cosolvent or surfactant or cyclodextrin, citrate buffer pH 4.5, 1 wt.-% Tween ® 80, 1 mg API in 100 g buffer",7.93 µg/mL
same,solubility,"[3]; citrate buffer, pH 4.5, aqueous with cosolvent or surfactant or cyclodextrin, citrate buffer pH 4.5, 1 wt.-% vitamin E TPGS, 10 mg API in 100 g buffer",76.4 µg/mL
same,Sum of impurities,"[3]; phosphate buffer pH 4.5, 1 wt.-% Cremophor ® RH 40, 1 mg API in 100 g buffer",0.2 % (a/a)
same,Sum of impurities,"[3]; phosphate buffer pH 4.5, 1 wt.-% Gelucire ® 44/14, 1 mg API in 100 g buffer",17.48 % (a/a)
same,Sum of impurities,"[3]; phosphate buffer pH 4.5, 1 wt.-% Labrasol ®, 1 mg API in 100 g buffer",5.91 % (a/a)
same,Sum of impurities,"[3]; phosphate buffer pH 4.5, 1 wt.-% PEG 400, 1 mg API in 100 g buffer",11.7 % (a/a)
same,Sum of impurities,"[3]; phosphate buffer pH 4.5, 1 wt.-% Propylene glycol, 1 mg API in 100 g buffer",38.22 % (a/a)
same,Sum of impurities,"[3]; phosphate buffer pH 4.5, 1 wt.-% SLS, 1 mg API in 100 g buffer",22.55 % (a/a)
same,Sum of impurities,"[3]; phosphate buffer pH 4.5, 1 wt.-% Solutol ® HS 15, 1 mg API in 100 g buffer",0.2 % (a/a)
same,Sum of impurities,"[3]; phosphate buffer pH 4.5, 1 wt.-% Tween ® 80, 1 mg API in 100 g buffer",0.52 % (a/a)
same,Sum of impurities,"[3]; phosphate buffer pH 4.5, 1 wt.-% vitamin E TPGS, 10 mg API in 100 g buffer",1.87 % (a/a)
same,solubility,"[3]; phosphate buffer, pH 4.5, aqueous buffer, phosphate buffer pH 4.5, 1 wt.-% PEG 400, 1 mg API in 100 g buffer",0.83 µg/mL
same,solubility,"[3]; phosphate buffer, pH 4.5, aqueous buffer, phosphate buffer pH 4.5, 1 wt.-% Propylene glycol, 1 mg API in 100 g buffer",0.04 µg/mL
same,solubility,"[3]; phosphate buffer, pH 4.5, aqueous with cosolvent or surfactant or cyclodextrin, phosphate buffer pH 4.5, 1 wt.-% Cremophor ® RH 40, 1 mg API in 100 g buffer",7.67 µg/mL
same,solubility,"[3]; phosphate buffer, pH 4.5, aqueous with cosolvent or surfactant or cyclodextrin, phosphate buffer pH 4.5, 1 wt.-% Gelucire ® 44/14, 1 mg API in 100 g buffer",53.5 µg/mL
same,solubility,"[3]; phosphate buffer, pH 4.5, aqueous with cosolvent or surfactant or cyclodextrin, phosphate buffer pH 4.5, 1 wt.-% Labrasol ®, 1 mg API in 100 g buffer",45.8 µg/mL
same,solubility,"[3]; phosphate buffer, pH 4.5, aqueous with cosolvent or surfactant or cyclodextrin, phosphate buffer pH 4.5, 1 wt.-% SLS, 1 mg API in 100 g buffer",1.68 µg/mL
same,solubility,"[3]; phosphate buffer, pH 4.5, aqueous with cosolvent or surfactant or cyclodextrin, phosphate buffer pH 4.5, 1 wt.-% Solutol ® HS 15, 1 mg API in 100 g buffer",6.71 µg/mL
same,solubility,"[3]; phosphate buffer, pH 4.5, aqueous with cosolvent or surfactant or cyclodextrin, phosphate buffer pH 4.5, 1 wt.-% Tween ® 80, 1 mg API in 100 g buffer",8.91 µg/mL
same,solubility,"[3]; phosphate buffer, pH 4.5, aqueous with cosolvent or surfactant or cyclodextrin, phosphate buffer pH 4.5, 1 wt.-% vitamin E TPGS, 10 mg API in 100 g buffer",256 µg/mL
same,degradation of API after autoclaving,[4]; citrate buffer and SLS,highest degradation
same,degradation of API after autoclaving,[4]; phosphate buffer and vitamin E TPGS,lowest degradation
